Assays:
Test in all cases: relative viability (nuclei count vs DMSO), 5 days (fraction); higher = more cells survive
FH535 + Dasatinib = compound: CC1=C(C=CC(=C1)[N+](=O)[O-])NS(=O)(=O)C2=C(C=CC(=C2)Cl)Cl [FH535] + Cc1nc(Nc2ncc(C(=O)Nc3c(C)cccc3Cl)s2)cc(N2CCN(CCO)CC2)n1 [Dasatinib] (partner 0.075 µM)
Method in brief: (§1)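 Lung cancer cell lines were seeded in 1536-well plates and dosed by pin tool the next day, with either a single drug or a fixed anchor-drug dose combined with five library-drug doses (not always all listed) spaced in √10 steps. Five days later, one step fixed the cells and stained their nuclei (final 0.05% Triton X-100, 1% formaldehyde, 1 ug/ml Hoechst), and nuclei were counted on 4× images. Relative viability is the nuclei count in treated wells divided by the count in vehicle wells, and each value is the median of duplicate plates.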

FH535 + Lapatinib = compound: CC1=C(C=CC(=C1)[N+](=O)[O-])NS(=O)(=O)C2=C(C=CC(=C2)Cl)Cl [FH535] + CS(=O)(=O)CCNCc1ccc(-c2ccc3ncnc(Nc4ccc(OCc5cccc(F)c5)c(Cl)c4)c3c2)o1 [Lapatinib] (partner 2 µM)
Method in brief: as §1

FH535 + Navitoclax = compound: CC1=C(C=CC(=C1)[N+](=O)[O-])NS(=O)(=O)C2=C(C=CC(=C2)Cl)Cl [FH535] + CC1(C)CCC(c2ccc(Cl)cc2)=C(CN2CCN(c3ccc(C(=O)NS(=O)(=O)c4ccc(N[C@H](CCN5CCOCC5)CSc5ccccc5)c(S(=O)(=O)C(F)(F)F)c4)cc3)CC2)C1 [Navitoclax] (partner 0.5 µM)
Method in brief: as §1

FH535 + Vorinostat = compound: CC1=C(C=CC(=C1)[N+](=O)[O-])NS(=O)(=O)C2=C(C=CC(=C2)Cl)Cl [FH535] + O=C(CCCCCCC(=O)Nc1ccccc1)NO [Vorinostat] (partner 1 µM)
Method in brief: as §1

FH535 = compound: CC1=C(C=CC(=C1)[N+](=O)[O-])NS(=O)(=O)C2=C(C=CC(=C2)Cl)Cl [FH535]
Method in brief: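 Acceptance criteria were a control CV below 25% and at least one doubling per plate. Lung cancer cell lines in 1536-well plates got five library-drug doses (not always all listed) √10 apart by pinning and were left 5 days with no medium change. Viability divides treated-well nuclei by vehicle-well nuclei and is the median across plates. Nuclei were counted by MetaXpress from 4× Hoechst images.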

| Cell Line | relative viability (FH535 + Dasatinib; first compound 0.04 µM) | relative viability (FH535 + Dasatinib; first compound 0.1265 µM) | relative viability (FH535 + Dasatinib; first compound 0.4 µM) | relative viability (FH535 + Dasatinib; first compound 1.265 µM) | relative viability (FH535 + Lapatinib; first compound 0.1265 µM) | relative viability (FH535 + Lapatinib; first compound 0.4 µM) | relative viability (FH535 + Lapatinib; first compound 1.265 µM) | relative viability (FH535 + Navitoclax; first compound 0.1265 µM) | relative viability (FH535 + Navitoclax; first compound 0.4 µM) | relative viability (FH535 + Navitoclax; first compound 1.265 µM) | relative viability (FH535 + Vorinostat; first compound 0.04 µM) | relative viability (FH535 + Vorinostat; first compound 0.1265 µM) | relative viability (FH535 + Vorinostat; first compound 0.4 µM) | relative viability (FH535 + Vorinostat; first compound 1.265 µM) | relative viability (FH535; 0.04 µM) | relative viability (FH535; 0.1265 µM) | relative viability (FH535; 0.4 µM) | relative viability (FH535; 1.265 µM) | relative viability (FH535 + Lapatinib; first compound 0.04 µM) | relative viability (FH535 + Navitoclax; first compound 0.04 µM) |
| --- | --- | --- | --- | --- | --- | --- | --- | --- | --- | --- | --- | --- | --- | --- | --- | --- | --- | --- | --- | --- |
| LCLC-97TM1 | 0.726 | 0.797 | 0.811 | 0.77 | 0.766 | 0.837 | 0.833 | 0.446 | 0.392 | 0.304 | 0.203 | 0.568 | 0.706 | 0.745 | 0.809 | 0.913 | 0.844 | 0.913 |  |  |
| NCI-H1993 | 0.526 | 0.597 | 0.474 | 0.427 | 0.781 | 0.729 | 0.714 | 1.01 | 0.838 | 0.695 | 0.822 | 0.801 | 0.606 | 0.57 | 0.902 | 0.967 | 0.838 | 0.635 | 0.676 | 0.946 |
| NCI-H520 | 0.203 | 0.193 | 0.2 | 0.19 | 0.768 | 0.818 | 0.761 | 1.09 | 1.06 | 0.882 | 0.546 | 0.723 | 0.81 | 0.714 | 0.963 | 1.04 | 0.934 | 0.915 | 0.848 | 1.11 |
| NCI-H1975 | 0.304 | 0.341 | 0.263 | 0.294 | 0.748 | 0.715 | 0.73 | 1.32 | 0.91 | 0.934 | 0.651 | 0.744 | 0.675 | 0.622 | 0.919 | 0.965 | 0.87 | 0.82 | 0.863 | 1.16 |
| SK-LU-1 | 0.191 | 0.192 | 0.182 | 0.194 | 0.778 | 0.609 | 0.362 | 1.01 | 0.688 | 0.622 | 0.731 | 0.814 | 0.736 | 0.456 | 1.03 | 1.02 | 0.945 | 0.758 | 0.759 | 0.89 |
| NCI-H1651 | 0.397 | 0.419 | 0.284 | 0.201 | 0.729 | 0.731 | 0.669 | 1.2 | 1.05 | 0.864 | 0.473 | 0.531 | 0.606 | 0.52 | 0.92 | 0.988 | 0.964 | 0.727 | 0.815 | 1.15 |
| HARA | 0.358 | 0.194 | 0.205 | 0.182 | 0.802 | 0.8 | 0.73 | 1.17 | 1.15 | 0.931 | 0.376 | 0.489 | 0.511 | 0.341 | 0.855 | 0.876 | 0.779 | 0.711 | 0.743 | 1.14 |
| H3255 | 0.341 | 0.473 | 0.408 | 0.346 | 0.252 | 0.266 | 0.199 | 0.338 | 0.416 | 0.26 | 0.804 | 0.753 | 0.729 | 0.654 | 0.953 | 0.945 | 0.955 | 0.745 | 0.214 | 0.514 |
| NCI-H460 | 0.356 | 0.546 | 0.452 | 0.337 | 1.08 | 1 | 0.575 | 1.25 | 1.11 | 0.696 | 0.72 | 0.743 | 0.674 | 0.447 | 0.997 | 1.03 | 0.935 | 0.699 | 0.992 | 1.15 |
| CAL-12T | 0.361 | 0.417 | 0.291 | 0.235 | 0.633 | 0.726 | 0.476 | 1.11 | 1.12 | 0.654 | 0.562 | 0.927 | 0.802 | 0.492 | 0.989 | 0.977 | 0.819 | 0.591 | 0.612 | 1.16 |
| NCI-H1437 | 0.372 | 0.405 | 0.184 | 0.109 | 0.534 | 0.631 | 0.349 | 1.06 | 0.867 | 0.461 | 0.905 | 0.847 | 0.629 | 0.304 | 0.976 | 0.934 | 0.731 | 0.422 | 0.731 | 1.07 |
| HOP-62 | 0.604 | 0.571 | 0.533 | 0.57 | 0.87 | 1 | 1.01 | 1.08 | 0.916 | 0.779 | 0.5 | 0.681 | 0.557 | 0.563 | 0.89 | 0.919 | 0.93 | 0.853 | 0.886 | 0.997 |
| EPLC-272H | 0.283 | 0.318 | 0.311 | 0.281 | 1.1 | 0.827 | 0.831 | 1.22 | 1.07 | 0.926 | 0.442 | 0.42 | 0.437 | 0.406 | 0.838 | 0.934 | 0.796 | 0.774 | 0.677 | 1.04 |
| COR-L 105 | 0.292 | 0.325 | 0.314 | 0.333 | 0.345 | 0.372 | 0.398 | 0.864 | 0.702 | 0.637 | 0.793 | 0.857 | 0.848 | 0.876 | 0.882 | 1.08 | 0.76 | 0.82 | 0.274 | 0.725 |
| HCC-366 | 0.571 | 0.713 | 0.632 | 0.487 | 1.11 | 0.999 | 0.913 | 1.08 | 0.995 | 0.976 | 0.131 | 0.416 | 0.34 | 0.261 | 1 | 1.05 | 0.973 | 0.992 | 1 | 0.942 |
| NCI-H2009 | 0.256 | 0.307 | 0.269 | 0.277 | 0.859 | 0.853 | 0.656 | 1.13 | 1.09 | 0.847 | 0.732 | 0.762 | 0.693 | 0.602 | 0.964 | 1.01 | 0.92 | 0.701 | 0.82 | 1.11 |
| NCI-H2347 | 0.298 | 0.292 | 0.294 | 0.261 | 0.664 | 0.971 | 0.781 | 0.792 | 0.871 | 0.705 | 0.753 | 0.681 | 0.608 | 0.52 | 0.986 | 0.974 | 1.02 | 0.842 | 0.979 | 0.684 |
| NCI-H838 | 0.276 | 0.291 | 0.284 | 0.269 | 0.873 | 0.795 | 0.734 | 1.24 | 1.07 | 0.969 | 0.704 | 0.754 | 0.659 | 0.591 | 0.962 | 0.96 | 0.851 | 0.777 | 0.971 | 1.16 |
| NCI-H1355 | 0.723 | 0.692 | 0.57 | 0.605 | 1.01 | 0.933 | 0.883 | 0.998 | 0.88 | 0.66 | 0.574 | 0.631 | 0.565 | 0.534 | 0.942 | 0.981 | 0.917 | 0.681 | 0.92 | 0.862 |
| NCI-H2170 | 0.664 | 0.611 | 0.429 | 0.625 | 0.332 | 0.265 | 0.254 | 0.548 | 0.597 | 0.54 | 0.713 | 0.816 | 0.768 | 0.69 | 0.904 | 1.02 | 0.963 | 0.858 | 0.26 | 0.612 |
| NCI-H2023 | 0.601 | 0.616 | 0.49 | 0.459 | 0.846 | 0.919 | 0.738 | 1 | 1.04 | 0.804 | 0.473 | 0.703 | 0.663 | 0.537 | 0.901 | 1.06 | 0.988 | 0.841 | 0.671 | 1 |
| NCI-H1650 | 0.281 | 0.299 | 0.3 | 0.297 | 0.73 | 0.74 | 0.784 | 1.27 | 1.17 | 0.856 | 0.492 | 0.564 | 0.509 | 0.441 | 0.893 | 0.966 | 0.881 | 0.717 | 0.642 | 1.17 |
| NCI-H1395 | 0.361 | 0.402 | 0.413 | 0.344 | 0.968 | 0.964 | 0.555 | 1.23 | 1.06 | 0.895 | 0.543 | 0.679 | 0.697 | 0.532 | 0.683 | 0.929 | 0.909 | 0.62 | 0.768 | 1 |
| NCI-H2087 | 0.685 | 0.711 | 0.714 | 0.675 | 0.825 | 0.868 | 0.6 | 1.11 | 0.947 | 0.518 | 0.566 | 0.782 | 0.693 | 0.551 | 1.05 | 1.01 | 0.845 | 0.683 | 0.918 | 0.811 |
| PC-14 | 0.282 | 0.287 | 0.251 | 0.245 | 0.318 | 0.376 | 0.313 | 1.1 | 1.01 | 0.941 | 0.741 | 0.607 | 0.782 | 0.797 | 1.01 | 1.06 | 0.989 | 0.955 | 0.365 | 0.972 |
| NCI-H1793 | 0.321 | 0.342 | 0.296 | 0.339 | 0.575 | 0.641 | 0.696 | 0.573 | 0.469 | 0.325 | 0.505 | 0.519 | 0.63 | 0.568 | 0.825 | 0.747 | 0.762 | 0.642 | 0.525 | 0.49 |

Reference: the supplement of paper PMC10307832
